By melting point is commonly meant the temperature, or range, at which the solid turns liquid.

The molecule `CCOC(=O)/C=C/c1cc(-c2c(CC(=O)Nc3ccc(Cl)cc3C(F)(F)F)c(=O)oc3cc(Cl)c(C)cc23)ccc1F` returned a melting point of 160 to 162 °C.

With `CC1=C(c2nc(C)no2)C(c2cccc(Cl)c2Cl)C(c2nc(C)no2)=C(C)N1`, the melting point was in the range of 227 to 229 °C.

Regarding `CCCCCCCCCC(=O)OCc1cccn2c(=O)c(CCN3CCC(N4Cc5ccc(F)cc5O4)CC3)c(C)nc12`, the melting point is 112 °C.

`Cc1ccc(N(C)S(=O)(=O)c2cccs2)c2[nH]c(C3=NCC(CC(N)=O)S3)cc12` (stereo not given) showed a melting point of 120 to 121 °C.

The molecule `Cc1cccc(S(=O)(=O)N2CCn3c(c(C(N)=O)c(Cl)c3-c3ccccc3)C2)c1` came in with a melting point of 165 to 167 °C.

For the molecule `Cn1c(CC#N)ccc1C(=O)c1ccc(F)cc1`, the melting point was 134 to 136 °C.

Consider `Cc1c(-c2ccccc2)oc2c(C(=O)O)cc(Br)cc2c1=O`, for which the melting point lay in the range of 287 to 289 °C.

For `CN(C)CCCCCCc1nn(CC(N)=O)c(-c2ccccc2)c1-c1ccccc1`, the melting point was 60 to 63 °C.

In the case of `CCc1nc(-c2ccc(/C=C/C3(O)CN4CCC3CC4)cc2)no1` (stereo not given), the melting point was 158 to 160 °C.

On to `Cc1cc(F)ccc1-c1nc(NC2CCOCC2)nc2c1ccc(=O)n2-c1c(F)cccc1F`, for which the melting point was in the range of 231 to 232 °C.

For the molecule `C=Cc1ccc2cc(C3CCN(Cc4ccccc4)CC3)ccc2c1`, the melting point lay in the range of 112 to 114 °C.

In turn, `N#Cc1c(O)cccc1[N+](=O)[O-]` had a melting point of 200 °C.

Turning to `CSc1nccc(CC(=O)c2ccc(Cl)cc2Cl)n1`, the melting point was 105 to 107 °C.

In the case of `CC(C)c1cc2n(CCc3ccccc3)cc(C(=O)O)c(=O)n2n1`, the melting point lay in the range of 220 to 225 °C.

`CCc1cc(C)cc(CC)c1C1C(=O)C2=CC(CCC(C)=NOC)CC2C1=O` (stereo not given) had a melting point of 79 to 80 °C.

As to `COc1cc(Sc2cc(F)cc(C3(OC)CCOCC3)c2)ccc1/C(C)=N/O`, the melting point amounted to 155 °C.

In the case of `CC(C)C(N)C(=O)NC(Cc1ccccc1)C(O)C(O)C(Cc1ccccc1)NC(=O)C(N)C(C)C` (stereo not given), the melting point was 205 to 207 °C.

`O=C1C(Cl)=C(c2ccccc2)C(=O)c2ccccc21` came in with a melting point of 111 to 112 °C.

For the molecule `CSC1=C([N+](=O)[O-])CCN1`, the melting point was 207 to 209 °C.

For the molecule `CCC1c2ccc(F)n2-c2ccc(F)cc2N1S(=O)(=O)c1ccc(O)cc1` (stereo not given), the melting point fell in the range of 169 to 171 °C.

For `Cc1cnc(Cl)c(C(=O)O)c1`, the melting point came out at 180 °C.

In the case of `CCOC(=O)CC(O)(CC)c1cc2n(c(=O)c1CO)Cc1cc3ccccc3nc1-2` (stereo not given), the melting point is 157 to 161 °C.

Regarding `CCC(=O)ON=C(c1ccccc1)c1cc(C(C)(C)C)c(O)c(C(C)(C)C)c1`, the melting point was 132 to 134 °C.

Molecule `CCC(=O)c1cnc2c(c1)oc(=O)n2C` gave a melting point of 110 to 112 °C.

In turn, `CC1Cc2ccc(N3C(=O)C4=C(CCCC4)C3=O)cc2O1` (stereo not given) showed a melting point of 114 to 118 °C.

`COc1cc(C)cc(OC)c1CCCCCNC(=O)[C@@H](CCCCN)NC(=O)c1cc2ccccc2n1CC(=O)O` registered a melting point of 173 °C.

For the molecule `CNC(=O)N1CC(Oc2ccccn2)C1`, the melting point lay in the range of 165 to 168 °C.

For the molecule `CC(C)(C)OC(=O)N1CCN(c2ccccc2O)CC1`, the melting point was 115 to 117 °C.

The molecule `O=C1NCc2ccc3ccccc3c21` returned a melting point of 138 to 141 °C.

Turning to `COC(=O)c1cc2c(O)c(C(=O)NCc3ccc(Cl)cc3)cnc2s1`, the melting point is 238 to 240 °C.

In turn, `N=C(N)c1cccc(Cn2ccc3ncn(Cc4ccc5ccc(C(=N)N)cc5c4)c3c2=O)c1` showed a melting point of over 300 °C.

In turn, `CCC[C@H]1CCC[C@H](N2C(=O)c3ccccc3C2=O)C(=O)N1` showed a melting point of 146 to 151 °C.

In the case of `N#Cc1cc(F)c(NC(=O)C=C(N)C(F)(F)F)cc1F`, the melting point was found to be 127 °C.

In turn, `CC(=O)NC1CCc2[nH]c3c(F)cc(F)cc3c2C1` (stereo not given) came in with a melting point of 179 to 183 °C.

`O=C(c1ccccc1[N+](=O)[O-])N1CCCc2ccccc21` came in with a melting point of 155 °C.

The molecule `NCC(O)c1cc(C(N)=O)c2[nH]ccc2c1` (stereo not given) displayed a melting point of 88 to 90 °C.

Molecule `CCOC(=O)Nc1cc(F)c(C#N)cc1F` showed a melting point of 107 °C.

`OC(Cn1cncn1)(Cn1cnc(C=Cc2ccc(C(F)(F)F)cc2)n1)c1ccc(Cl)cn1` (stereo not given): the melting point lay within 159 to 161 °C.

On to `CS(=O)(=O)N(Cc1ccccc1)c1ccc(C(=O)CBr)cc1`, for which the melting point was in the range of 101 to 103 °C.

Molecule `CC1NC(=O)NN=C1c1ccc(NCc2cccnc2)cc1` (stereo not given) gave a melting point of 254 to 256 °C.

Consider `Nc1cc2c(cc1Oc1ccc(F)cc1)CCC2`, for which the melting point was determined as 123 °C.

The molecule `COC(=O)COc1cccc2c(CNC(=O)COc3ccccc3)coc12` displayed a melting point of 101 to 102 °C.

Regarding `CCc1ccc2c(O)c(C(=O)O)cnc2c1`, the melting point was in the range of 175 to 178 °C.

The molecule `CC(=O)N1CCc2c(sc(C)c2CCN2CCC(c3nn(-c4ccc(F)cc4)c4cc(F)ccc34)CC2)C1` yielded a melting point of 193 to 196 °C.

Molecule `CCOC(=O)c1c(Cn2cnnc2)nc2cc(OC)c(OC)cc2c1-c1ccc(OC)c(OC(C)C)c1` gave a melting point of 170 to 171 °C.

In turn, `CC(C)CN(C=NS(=O)(=O)c1c(Cl)nc2ccc(Cl)nn12)CC(C)C` showed a melting point of 151 to 154 °C.

As for `CC1(c2cn(-c3c(Cl)cc(C(F)(F)F)cc3Cl)nc2C#N)CC1`, the melting point lay in the range of 138 to 139 °C.

As for `Cc1oc(-c2ccccc2)nc1COc1ccc(CON=C(CCCC(C)(C)C(=O)O)c2ccccc2)cc1`, the melting point is 111 to 112 °C.

With `Cc1cc(C)c(-c2nc3ccc(C(=O)c4ccccc4)cc3[nH]2)[nH]1`, the melting point was 225 to 229 °C.

As for `CCNC(=O)c1occc1[Si](C)(C)C`, the melting point lay in the range of 69 to 72 °C.

On to `Cc1ccc(N)c(Cl)c1C#N`, for which the melting point is 117 to 119 °C.

For the molecule `Nc1c([N+](=O)[O-])sc2c(Cl)cc(Cl)cc12`, the melting point was 290 to 292 °C.

`Cc1c(-c2cccnc2)n(Cc2ccc(C#N)cc2)c2ccccc12` returned a melting point of 127 to 129 °C.

`O=[N+]([O-])c1ccc(F)c(-c2ccncc2)c1F` showed a melting point of 110 to 112 °C.

In the case of `CCOc1nc2cccc(C(=O)O)c2n1Cc1ccc(-c2ccccc2-c2nc(=O)o[nH]2)cc1`, the melting point was 156 to 157 °C.

`O=c1cc(-c2ccncc2)nc2n(CCCc3c[nH]c4ccccc34)ccn12`: the melting point was 201 to 203 °C.

As for `CSc1ccc(-c2coc3ncc(-c4nnc(C)o4)cc23)cc1`, the melting point was 209 to 210 °C.

For `O=C(CCn1c(=O)c(=O)[nH]c2cc(C(F)(F)F)c(-n3cccc3)cc21)NCc1ccccc1`, the melting point is 234 to 235 °C.

`Cc1cc(Cc2n[nH]c(=O)c3ccccc23)cc(C)n1` registered a melting point of 229 to 230 °C.

As to `OCCCCCCCCCCCOc1ccc(O)cc1`, the melting point lay in the range of 99 to 100 °C.

`C=CCN1C(=O)NCC1c1ccc(OC)c(OC2CC3CCC2C3)c1` (stereo not given) came in with a melting point of 110 to 113 °C.

Molecule `Clc1ccc(CN2CCN=C2C(Cn2ccnc2)c2ccccc2)c(Cl)c1` (stereo not given) had a melting point of 120 to 135 °C.

`O=[N+]([O-])c1ccc2c(c1)SC1=NCCCN12`: the melting point worked out at 248 °C.

On to `Cn1c(=O)[n+]([O-])c(-c2ccccc2)c2cc(Cl)ccc21`, for which the melting point worked out at 254 °C.

In the case of `CCOC(=O)CC(=O)Cn1nc(CC)c(Oc2cc(Cl)cc(Cl)c2)c1CC`, the melting point was 82 to 84 °C.

As for `CCOC(=O)c1c(C)oc(=O)c(-c2c(C)cc(C)cc2C)c1OC(C)=O`, the melting point is 107 to 109 °C.

`NC(=S)NC(=O)c1ccccc1` showed a melting point of 170 to 171 °C.

`CCOC(=O)C1[C@@H]2[C@@H](O)[C@@H]3O[C@H](c4cccc(OC)c4)OC[C@H]3O[C@H]12` (stereo not given in full): the melting point was 107 °C.

Turning to `C=CC(OC(C)OCC)C(NC(=O)OC(C)(C)C)c1ccccc1` (stereo not given), the melting point was 66 to 72 °C.

`CCCNCC1CCN(c2nc3c(cc2F)c(=O)c(C(=O)O)cn3C2CC2)C1` (stereo not given): the melting point was 230 to 233 °C.

For `CCCCn1c(=S)[nH]c2sccc2c1=O`, the melting point lay in the range of 200 to 203 °C.

Take `CCOC(=S)Nc1cccc(-c2ccnc3c(C(=O)c4cccs4)cnn23)c1`: the melting point was 209 to 211 °C.

Take `Cc1ncc(CO)cc1OC(=O)c1cccs1`: the melting point fell in the range of 59 to 61 °C.

Consider `COc1cc2c(cc1OC)OCC(C(=O)O)=C2`, for which the melting point lay in the range of 225 to 228 °C.

For the molecule `Cc1oc(-c2ccccc2)nc1C(=O)CBr`, the melting point was 88 to 89 °C.

Molecule `COc1nc(N)nc2c1ncn2C1O[C@H](CO)C[C@@]1(C)O` (stereo not given in full) displayed a melting point of 140 to 142 °C.

Take `CC1OC(Cn2cncn2)(c2ccc(Cl)cc2Cl)OC1C` (single isomer, unassigned; (-)): the melting point stood at 82.5 °C.

`CS(=O)(=O)NCCCCCCCCn1cnc2c(N)nc3ccccc3c21` showed a melting point of 153 to 155 °C.

On to `COC(=O)Nc1cccc(C)c1COc1cccn2c(C)c(C)nc12`, for which the melting point is 176 to 177 °C.

Regarding `C=C(Nc1nc(-c2ccccc2)c(-c2nc3ccccc3c(=O)n2-c2ccccc2C)s1)c1ccco1`, the melting point lay within 262 to 263 °C.

In the case of `O=C(Cl)c1ccccc1SCc1ccccc1`, the melting point lay in the range of 113 to 116 °C.

For the molecule `CCSc1cc(C)nc(SCC)c1NC(=O)CSc1nc2ccccc2s1`, the melting point is 119 to 120 °C.

Regarding `O=C(O)c1c(CN2CCC(c3ccccc3)(c3ccccc3)CC2)ncn1Cc1ccc(Cl)cc1`, the melting point lay in the range of 135 to 136 °C.

With `N#Cc1nn(-c2c(Cl)cc(C(F)(F)F)cc2Cl)c(N)c1-c1ccc(F)c(Cl)c1`, the melting point is 197 to 198 °C.

As to `Nc1cc(F)c(F)cc1S(N)(=O)=O`, the melting point lay within 137 to 142 °C.

Molecule `CC1(C)CCC2(C(=O)O)CCC3(C)C(=CCC4C5(C)Cc6c(n[nH]c6N)C(C)(C)C5CCC43C)C2C1` (stereo not given) gave a melting point of 263 to 266 °C.

With `O=C(NCC1(c2ccccc2)CCCCC1)Nc1ccc(F)cc1F`, the melting point was 163 to 165 °C.

The molecule `CCNC(=O)Nc1nc2cc(-c3c(C)noc3C)cc(C(=O)NCC)n2n1` had a melting point of 238 to 241 °C.

Turning to `NC(=O)c1nc(-c2cccc(O)c2)nc2c1[nH]c(=O)n2[C@H]1CC[C@H](O)CC1`, the melting point was in the range of 355 to 357 °C.

The molecule `O=[N+]([O-])c1ccc(Br)c2nsnc12` showed a melting point of 216 to 218 °C.

The record behind these values is a melting point compilation (Tetko et al.; mined from patent text by program, amines drawn as free bases though some values may be those of a salt).
